Measurements reported in article PMC2151269, “Broad phase II and pharmacokinetic study of methoxy-morpholino doxorubicin (FCE 23762-MMRDX) in non-small-cell lung cancer, renal cancer and other solid tumour patients” (British Journal of Cancer, 1998).
Where “and” joins values, the source holds several entries; their conditions need not be identical. Equal entries are not always repeated.

Legend:
[1] = Leucocyte (cellular) drug levels 2 and 24 h after injection; assay type: in vivo, human; settings: for Leucocyte MMRDX levels, median: n = 6, per l cell volume
Excerpt: (§1) British Jourmal of Cancer (1998) 77(1), 139-146 ? 1998 Cancer Research Campaign Broad phase 11 and pharmacokinetic study of methoxy-morpholino doxorubicin (FCE 23762-MMRDX) in non-small-cell lung cancer, renal cancer and other solid tumour patients M Bakker', JP Droz2, AR Hanauske3, J Verweij4, AT van Oosterom5, HJM Groen', MA Pacciarini6, L Domenigoni6, F van Weissenbruch', E Pianezzola6 and EGE de Vries' 'University Hospital Groningen, The Netherlands; 2Centre L6on Berard, Lyon, France; 3Med. […] Patients received a maximum of six cycles. […] Limitations of the clinical value of anthracyclines are their toxicity profile, especially irreversible, dose-related cardiotoxicity, and intrinsic or acquired tumour resis- tance. Various mechanisms play a role in tumour cell resistance to anthracyclines, including overexpression of drug efflux pumps such as P-glycoprotein, decreased levels of the target enzyme topoisomerase II, and an increase in cellular detoxifying capacity (Kaye and Merry, 1985; Deffie et al, 1989; De Jong et al, 1990; Ford and Hait, 1990; Meijer et al, 1990; Zaman et al, 1994). The morpholinyl anthracyclines have been developed in the course of research aimed at identifying new anthracyclines with at least partially novel modes of action in addition to activity against resis- tant tumours (Acton et al, 1984). […] Box 30.001, 9700 RB Groningen, The Netherlands (Figure 1).

[2] = test system: NSCLC, renal cell cancer, head and neck cancer, cervix carcinoma, ACUP; assay: Tumour response according to WHO criteria; assay type: in vivo, human
Excerpt: as §1

[3] = Plasma pharmacokinetics, cycle 1 (HPLC with fluorescence detection); assay type: in vivo, human
Excerpt: as §1

[4] = test system: left ventricular ejection fraction (LVEF); assay: Cardiac toxicity: LVEF by MUGA scan or echocardiography; assay type: in vivo, human
Excerpt: as §1

[5] = test system: solid tumours in animal models; design: method as in Grandi et al, 1990; Ripamonti et al, 1992; settings: similar activity by intraperitoneal, i.v. or oral route; ref Grandi et al, 1990; Ripamonti et al, 1992; cited from earlier work
[6] = test system: metastatic or unresectable solid tumour patients; assay: Haematological toxicity (CTC grading, blood cell counts) in broad phase II study; assay type: in vivo, human; settings: for Cycles (%) with anaemia / Cycles (%) with leucopenia / Cycles (%) with neutropenia / Cycles (%) with thrombocytopenia: n = 126 cycles; for Median platelet nadir: 26 patients who received at least three cycles
Excerpt: as §1

[7] = test system: metastatic or unresectable solid tumour patients; assay: Non-haematological toxicity (CTC grading) in broad phase II study; assay type: in vivo, human; settings: for Percentage of cycles with alopecia / Percentage of cycles with diarrhoea / Percentage of cycles with fatigue/malaise / Percentage of cycles with liver toxicity, ALAT / Percentage of cycles with liver toxicity, ASAT / Percentage of cycles with nausea / Percentage of cycles with stomatitis / Percentage of cycles with vomiting / Percentage of cycles with liver toxicity, bilirubin: 132 evaluable cycles
Excerpt: as §1

[8] = plasma, three-compartmental model, first cycle, 11 patients, 1.5 mg m-2 i.v.
[9] = 132 cycles, 48 patients, 1.5 mg m-2 i.v. bolus every 4 weeks
[10] = CTC Grade I, 1.5 mg m-2 i.v. bolus every 4 weeks
[11] = CTC Grade II, 1.5 mg m-2 i.v. bolus every 4 weeks
[12] = CTC Grade III, 1.5 mg m-2 i.v. bolus every 4 weeks
[13] = CTC Grade IV, 1.5 mg m-2 i.v. bolus every 4 weeks
[14] = out of 131 cycles, despite intensive prophylactic antiemetic treatment

## COc1cccc2c1C(=O)c1c(O)c3c(c(O)c1C2=O)C[C@@](O)(C(=O)CO)C[C@@H]3O[C@H]1C[C@H](N2CCO[C@H](OC)C2)[C@H](O)[C@H](C)O1 [MMRDX, methoxymorpholino-doxorubicin]
[1]; 2 h after infusion
  Mean leucocyte concentration relative to corresponding plasma concentration: 650 fold
  Leucocyte MMRDX levels, median: 414 µg/L
[1]; 24 h after infusion
  Mean leucocyte concentration relative to corresponding plasma concentration: 400 fold
  Leucocyte MMRDX levels, median: 174 µg/L
[2]; NSCLC (20 evaluable patients) and renal cell cancer (18 evaluable patients)
  Efficacy in NSCLC and renal cell cancer: ineffective
[2]; NSCLC patient with retroperitoneal metastases, forty-three patients evaluable for tumour response
  Patients with partial response: One
[2]; forty-three patients evaluable
  Patients with progressive disease: Twenty-five
  Patients with stable disease: 17 patients
[2]; one NSCLC patient
  Duration of partial response: 17 weeks
[3]; epirubicin value ref Camaggi et al, 1988
  Terminal half-life relative to epirubicin t1/2,z: 1.6 fold
[3]; on the basis of AUC calculated up to infinite time
  Interindividual coefficient of variation: about 20%
[3]; plasma, 11 patients, 1.5 mg m-2 i.v.
  Plasma clearance, mean ± s.d.: 37.2 +/- 7.3 l h-1 m-2
[3]; plasma, n = 11, 1.5 mg m-2 i.v., linear trapezoidal rule
  AUC0-infinity, mean ± s.d.: 20.4 ± 6.2 ng·h/mL
[3]; plasma, three-compartmental model, 11 patients, 1.5 mg m-2 i.v.
  Half-life of the first phase: 4 min
[3]; [8]
  t1/2,beta (second phase), mean ± s.d.: 2.4 h
  t1/2,gamma (third phase), mean ± s.d.: 49 h
[4]; 26 patients evaluable for cardiac toxicity
  Patients with left ventricular ejection fraction reduced >= 15%: two
[4]; one patient with head and neck cancer, after three cycles, cumulative dose 4.5 mg m-2
  Decrease in LVEF: 15%
[4]; overall conclusion of the study
  Cardiotoxicity: No clear signs of cardiotoxicity were observed
[4]; second patient (NSCLC), echocardiography, after four cycles, cumulative dose 6 mg m-2
  Decrease in LVEF: 17%
[5]
  Effectiveness in solid tumours in animal models: as effective as doxorubicin
[6]; 47 patients evaluable for haematological toxicity
  Patients hospitalized for neutropenic fever: Seven
[6]; [9]
  CTC grade III/IV neutropenia, % of cycles: 27%
  CTC grade III/IV thrombocytopenia, % of cycles: 12%
[6]; [10]
  Cycles (%) with anaemia: 37%
  Cycles (%) with leucopenia: 17%
  Cycles (%) with neutropenia: 13%
  Cycles (%) with thrombocytopenia: 11%
[6]; [11]
  Cycles (%) with anaemia: 31%
  Cycles (%) with leucopenia: 23%
  Cycles (%) with neutropenia: 20%
  Cycles (%) with thrombocytopenia: 6%
[6]; [12]
  Cycles (%) with anaemia: 5%
  Cycles (%) with leucopenia: 19%
  Cycles (%) with neutropenia: 18%
  Cycles (%) with thrombocytopenia: 6%
[6]; [13]
  Cycles (%) with anaemia: 0%
  Cycles (%) with leucopenia: 6%
  Cycles (%) with neutropenia: 9%
  Cycles (%) with thrombocytopenia: 6%
[6]; Cycle 1, n=47
  Median (range) nadir haemoglobin: 110(69-147) g l-1
  Median (range) nadir leucocytes: 3.0 (0.1-9.1) x 109 l-1
  Median (range) nadir neutrophils: 1.4 (<0.1-5.8) x 109 l-1
  Median (range) nadir platelets: 178 (8-449) x 109 l-1
[6]; Cycles 2-6, n=80
  Median (range) nadir platelets: 117 (9-372) x 109 l-1
[6]; Cycles 2-6, n=81
  Median (range) nadir neutrophils: 1.7 (< 0.1-6.8) x 109 l-1
[6]; Cycles 2-6, n=82
  Median (range) nadir haemoglobin: 103 (69-153) g l-1
  Median (range) nadir leucocytes: 3.0 (0.1-9.8) x 109 l-1
[6]; cycle 1
  Median platelet nadir: 1.78e+11 L⁻¹
[6]; cycle 2
  Median platelet nadir: 1.45e+11 L⁻¹
[6]; cycle 3
  Median platelet nadir: 1.08e+11 L⁻¹
[6]; cycle 4
  Median platelet nadir: 1.06e+11 L⁻¹
[6]; cycle 5
  Median platelet nadir: 9e+10 L⁻¹
[6]; cycle 6
  Median platelet nadir: 1.17e+11 L⁻¹
[6]; day 14 of cycle 2, grade IV neutropenia
  Septic death: one
[6]; day of cycle
  Day of platelet nadir: 22 day and 22 (range 7-36) day
  Median day of neutrophil nadir: 22 day and 22 (range 6-36) day
[6]; excluding admission for blood cell transfusion
  Total number of hospital admissions for haematological toxicity: eight
[6]; in eight patients
  Cycles with dose adjustments for haematological toxicity: 19%
[6]; in vivo
  Cycles delayed for haematological toxicity: 29%
[6]; range 1-14
  Median duration of grade IV neutropenia: 7 days
[6]; range 1-20
  Median time to recovery from platelet nadir to > 100 x 109 l-1: 7 days
[6]; range 2-22
  Median time to recovery from neutrophil nadir to > 2 x 109 l-1: 7 days
[6]; range 3-19
  Median duration of grade IV thrombocytopenia: 11 days
[7]; 132 cycles
  Late and prolonged nausea > or = grade II, % of cycles: 34%
  Vomiting > or = grade II, % of cycles: 39%
[7]; % of cycles
  Cycles with transient elevation of ALAT: 71%
  Cycles with transient elevation of ASAT: 64%
[7]; CTC Grade I
  Percentage of cycles with alopecia: 10%
  Percentage of cycles with diarrhoea: 7%
  Percentage of cycles with fatigue/malaise: 24%
  Percentage of cycles with liver toxicity, ALAT: 37%
  Percentage of cycles with liver toxicity, ASAT: 46%
  Percentage of cycles with nausea: 43%
  Percentage of cycles with stomatitis: 11%
  Percentage of cycles with vomiting: 24%
[7]; CTC Grade II
  Percentage of cycles with alopecia: 1.5%
  Percentage of cycles with diarrhoea: 1%
  Percentage of cycles with fatigue/malaise: 22%
  Percentage of cycles with liver toxicity, ALAT: 27%
  Percentage of cycles with liver toxicity, ASAT: 16%
  Percentage of cycles with liver toxicity, bilirubin: 12%
  Percentage of cycles with nausea: 27%
  Percentage of cycles with stomatitis: 1%
  Percentage of cycles with vomiting: 30%
[7]; CTC Grade III
  Percentage of cycles with diarrhoea: 1%
  Percentage of cycles with fatigue/malaise: 7%
  Percentage of cycles with liver toxicity, ALAT: 7%
  Percentage of cycles with liver toxicity, ASAT: 2%
  Percentage of cycles with liver toxicity, bilirubin: 0%
  Percentage of cycles with nausea: 7%
  Percentage of cycles with stomatitis: 1%
  Percentage of cycles with vomiting: 4%
[7]; CTC Grade IV
  Percentage of cycles with diarrhoea: 0%
  Percentage of cycles with fatigue/malaise: 5%
  Percentage of cycles with liver toxicity, ALAT: 0%
  Percentage of cycles with liver toxicity, ASAT: 0%
  Percentage of cycles with liver toxicity, bilirubin: 1%
  Percentage of cycles with stomatitis: 0%
  Percentage of cycles with vomiting: 5%
[7]; considered as drug-related
  Fatigue grade I-III, % of cycles: 53%
[7]; in vivo
  Alopecia grade I or II, % of cycles: 11%
  Cumulative liver toxicity: No cumulative liver toxicity was observed
  Cycles with CTC toxicity >= grade I of ALAT: 87 cycles
  Cycles with CTC toxicity >= grade I of ASAT: 78 cycles
  Cycles with CTC toxicity >= grade I of bilirubin: 15 cycles
  Cycles with CTC toxicity >= grade III of ALAT: nine
  Cycles with CTC toxicity >= grade III of ASAT: two
  Cycles with CTC toxicity >= grade III of bilirubin: one
  Grade I-II diarrhoea, % of cycles: 8%
  Grade I-II stomatitis, % of cycles: 11%
  Local phlebitis at the injection site, renal toxicity, neurotoxicity: Neither local phlebitis at the injection site nor renal or neuro- toxicity were observed
  Median day of onset of nausea: 3 (range 1-17) day
  Median day of onset of vomiting: 3 (range 1-22) day
  Patients hospitalized for nausea/vomiting: Five
[7]; in vivo, iv
  Nausea and vomiting grade III-IV, % of cycles: 9%
[7]; lasting approximately one week
  Day of maximum transient elevations of ASAT and ALAT: 8 days
[7]; only one grade II
  Patients with alopecia grade I or II: Nine
[7]; [14]
  Cycles with nausea: 100 cycles
  Cycles with vomiting: 82 cycles
[7]; printed '> grade III/IV', 132 cycles
  Transient transaminases elevation grade III/IV, % of cycles: 7%
[7]; range 1-7
  Median hospitalization duration for nausea/vomiting: 4 days
[7]; range 1-28
  Median duration of vomiting: 3 days
[7]; range 1-38
  Median duration of nausea: 7 days
[7]; range 8-26
  Median day of recovery of ASAT to normal values: 15 days
[7]; range 8-36
  Median day of recovery of ALAT to normal values: 15 days
